Measurements published in article PMC9496346, “Controversial Role of Transferrin in the Transport of Ruthenium Anticancer Drugs” (Biomolecules, 2022).

How the values were obtained:
HepG2 cells = experiment: Cellular Ru uptake by HepG2 cells (ICP-MS); format: cell-based, human; settings: HepG2, 60 μM Ru, 24 h; B2 vs B1
Description: Human hepatoma (HepG2) cells were originally received from the American Type Culture Collection (ATCC, Cat. No. HB-8065) and cultured as described previously. This cell line was used for Tf-dependent metal uptake studies because of the high expression levels of human TfR1 [43]. For treatments, the cells were grown to confluence in 24-well plates, using Advanced DMEM (Dulbecco’s modified Eagle’s minimal essential medium, Invitrogen Cat. No. 12491-015), supplemented with L-glutamine (2.0 mM), antibiotic-antimycotic mixture (100 mg mL^−1 penicillin, 100 mg mL^−1 steptomycin and 0.25 mg mL^−1 amphotericin B) and fetal calf serum (heat-inactivated, 2% v/v). Confluent cell layers were washed with serum-free treatment medium (DMEM, Invitrogen Cat. No. 19938-025), supplemented with glutamine, antibiotic-antimycotic mixture and 1.0 mg mL^−1 AlbuMax (Gibco Cat. No. 11020-021). […] After washing, the wells were filled with the treatment medium containing metal additions (detailed in B1–B9 of Table 1). The treatment media were sterilized by filtration through 0.2 µm membrane filters, and pre-equilibrated for 24 h at 310 K and 5% CO2 prior to the addition to cells, except for sample B1 that was used immediately after preparation. All the treatments were performed in triplicate, using random well positions to avoid experimental bias.
After 24 h incubation with the treatment media (B1–B9 in Table 1), the medium from each well was collected for the determination of Ru–protein binding and BLI analyses, and the wells were washed twice with PBS (0.50 mL/well). […]
The values of metal uptake were normalized using protein content in cell lysates. For protein determination, Bradford reagent (Sigma Cat. No B6916; 98 µL) was mixed with a small aliquot (2.0 µL) of each cell lysate, and the absorbance at 600 nm was measured using a Victor V3 plate reader. […] The test and calibration samples were analyzed in triplicate. […]

[1] = system: T1, recombinant human transferrin receptor 1 (TfR1); experiment: BLI of Tf–TfR1 binding in dilute human serum pre-treated with metal complexes; settings: serum incubated with 100 μM Ru complex or 60 μM Fe(III) as citrate
T1 construct: extracellular domain (Cyst89-Phe760), (His)6-tagged at the N-terminus; purchased Sino Biological, Beijing, China (TfR1); Sigma (human serum, Cat. No. H4522, as source of Tf) 11020-H07H
Description: The effects of Ru complexes on the Tf cycle were determined by BLI using previously developed protocols. The instrument used was a single-channel BLItz analyser (ForteBio, Menlo Park, CA, USA) with a tube holder (250 µL solution volume) and Ni(II)–nta coated optical probes held at 295 ± 1 K. Measurements used the Advanced Kinetics mode. […] Solutions of metal–Tf adducts (typical final Tf concentrations 150 nM or 1.0 µM) were prepared in the binding buffer (Section 2.1). The pH 7.4 binding buffer was used for Tf binding and dissociation from the probe, and the pH 5.6 buffer (Section 2.1) was used to mimic the endosomal step of the Tf cycle. Metal–Tf solutions (A1–A9 in Table 1) were diluted 100–400-fold, cell culture media were diluted 30-fold, and human serum samples were diluted 200-fold with the binding buffer immediately before the BLI measurements. All BLI data were background corrected by using data from buffer only runs with the same TfR1-loaded optical probe. Consistent BLI results were obtained in at least two independent measurements, using different probes and different batches of Tf solutions. Calculations of the Tf–TfR1 binding constants were performed using the 1:1 binding model (BLItz software, Version 1.1, Forte-Bio 2013), which can be used as a reasonable approximation of the physiological 2:2 Tf–TfR1 binding mechanism at low Tf concentrations. […]
(b) BLI response curves for dilute human serum samples in the presence or absence of metal complexes. Intact commercial human serum (Sigma H4522) was incubated with Fe(III)-citrate (60 µM) or with Ru complexes (100 µM) for 4 h at 310 K, then diluted 200-fold (to [Tf] ~ 150 nM) with the binding buffer (20 mM HEPES, 25 mM NaHCO3, 140 mM NaCl, pH = 7.4), and analyzed with the TfR1-loaded BLI probe. Designations of the steps in Tf cycle (A–D) correspond to those in Figure 1d-f, main text. Calculated KD values (1:1 binding model, BLItz software) were as follows: 8.0 nM (serum + Fe(III) citrate); or 28 ± 2 nM (serum in the presence or absence of Ru complexes). Typical anticancer Ru complexes, NAMI-A, KP1019 and RAPTA-C, were synthesized and characterized previously in the Lay group.
(1 picture or pasted object on this page, not shown here)

[2] = Decomposition of KP1019 in cell culture medium; format: in vitro ADME; settings: 310 K; reported previously and confirmed in this work
[3] = cited from earlier work

SMILES: [Cl-].[Cl-].[Cl-].[Cl-].[Ru+3].c1ccc2[nH][nH+]cc2c1.c1ccc2[nH]ncc2c1.c1ccc2[nH]ncc2c1 [KP1019, (IndH)[Ru^IIICl4(Ind)2]]
- Decrease in Ru uptake after decomposition in cell culture medium for 24 h prior to addition to cells, vs fresh solution (HepG2 cells): ~ 30 fold
- Effect on Tf–TfR1 binding in whole human serum [1]: did not have any effect
- Decomposition in cell culture medium (time) [2]: within several hours
- Tf binding of KP1019 decomposition products in blood serum, share of total Ru ([3]; human pharmacokinetic studies): 1–2%
- Typical peak Ru concentrations in the blood of patients ([3]; patients treated with KP1019 in clinical trials): 0.1 to 0.4 mM
